Experiments:
Assay in all cases: KINOMEscan competition binding
Details in all cases: compound 10.0 µM
[1] = target: CDC42BPG (human) (UniProt Q6DT37)
[2] = target: CDK13 (human) (UniProt Q14004)
[3] = target: CDK15 (human) (UniProt Q96Q40)
[4] = target: CDK19 (human) (UniProt Q9BWU1)
[5] = target: CDK9 (human) (UniProt P50750)
[6] = target: CDKL3 (human) (UniProt Q8IVW4)
[7] = target: CDKL5 (human) (UniProt O76039)
[8] = target: CHUK (human) (UniProt O15111)
[9] = target: CLK1 (human) (UniProt P49759)
[10] = target: CSNK1D (human) (UniProt P48730)
[11] = target: CSNK1G1 (human) (UniProt Q9HCP0)
[12] = target: DCLK2 (human) (UniProt Q8N568)
[13] = target: EPHA4 (human) (UniProt P54764)
[14] = target: HIPK4 (human) (UniProt Q8NE63)
[15] = target: IRAK4 (human) (UniProt Q9NWZ3)
[16] = tested on: LRRK2 (human), Q5S007 [G2019S]
[17] = target: MAP2K3 (human) (UniProt P46734)
[18] = target: MAPK6 (human) (UniProt Q16659)
Chain of MAPK6 (human) (Q16659 whole entry, looked up): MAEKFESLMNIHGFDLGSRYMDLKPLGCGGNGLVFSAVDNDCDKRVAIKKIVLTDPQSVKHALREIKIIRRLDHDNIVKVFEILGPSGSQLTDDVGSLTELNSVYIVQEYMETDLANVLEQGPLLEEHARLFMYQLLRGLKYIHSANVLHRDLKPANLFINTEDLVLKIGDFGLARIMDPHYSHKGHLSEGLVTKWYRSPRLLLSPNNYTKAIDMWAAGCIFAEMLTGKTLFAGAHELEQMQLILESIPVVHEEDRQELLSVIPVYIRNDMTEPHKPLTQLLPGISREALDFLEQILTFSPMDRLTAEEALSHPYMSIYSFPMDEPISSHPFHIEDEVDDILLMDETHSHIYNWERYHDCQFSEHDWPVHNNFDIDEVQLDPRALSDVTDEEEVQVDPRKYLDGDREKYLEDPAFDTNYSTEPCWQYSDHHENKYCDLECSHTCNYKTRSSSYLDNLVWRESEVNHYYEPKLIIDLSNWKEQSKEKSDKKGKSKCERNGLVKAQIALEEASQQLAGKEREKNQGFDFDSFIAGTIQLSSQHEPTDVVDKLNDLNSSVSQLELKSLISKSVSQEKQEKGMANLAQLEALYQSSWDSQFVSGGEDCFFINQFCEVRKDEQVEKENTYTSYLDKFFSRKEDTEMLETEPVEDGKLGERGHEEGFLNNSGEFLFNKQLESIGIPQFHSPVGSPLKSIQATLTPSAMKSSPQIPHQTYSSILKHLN

[19] = target: MST4 (human) (UniProt Q9P289)
Chain of MST4 (human) (Q9P289 whole entry, looked up): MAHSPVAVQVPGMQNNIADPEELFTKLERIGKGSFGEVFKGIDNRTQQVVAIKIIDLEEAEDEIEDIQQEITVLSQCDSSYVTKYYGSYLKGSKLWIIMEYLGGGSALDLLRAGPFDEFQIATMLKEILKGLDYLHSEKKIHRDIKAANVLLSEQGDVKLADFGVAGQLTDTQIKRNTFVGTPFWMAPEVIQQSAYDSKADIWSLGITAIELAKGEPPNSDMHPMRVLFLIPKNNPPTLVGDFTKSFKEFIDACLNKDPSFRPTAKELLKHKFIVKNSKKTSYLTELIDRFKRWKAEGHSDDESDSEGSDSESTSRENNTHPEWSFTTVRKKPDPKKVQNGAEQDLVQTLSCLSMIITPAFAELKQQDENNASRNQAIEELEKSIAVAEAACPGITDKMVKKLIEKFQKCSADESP

[20] = target: MTOR (human) (UniProt P42345)
[21] = target: MYLK2 (human) (UniProt Q9H1R3)
[22] = target: PDGFRB (human) (UniProt P09619)
[23] = target: PIK3CA (human) (UniProt P42336)
[24] = target: PIK3CB (human) (UniProt P42338)
[25] = target: PIK3CG (human) (UniProt P48736)
Chain of PIK3CG (human) (P48736 whole entry, looked up): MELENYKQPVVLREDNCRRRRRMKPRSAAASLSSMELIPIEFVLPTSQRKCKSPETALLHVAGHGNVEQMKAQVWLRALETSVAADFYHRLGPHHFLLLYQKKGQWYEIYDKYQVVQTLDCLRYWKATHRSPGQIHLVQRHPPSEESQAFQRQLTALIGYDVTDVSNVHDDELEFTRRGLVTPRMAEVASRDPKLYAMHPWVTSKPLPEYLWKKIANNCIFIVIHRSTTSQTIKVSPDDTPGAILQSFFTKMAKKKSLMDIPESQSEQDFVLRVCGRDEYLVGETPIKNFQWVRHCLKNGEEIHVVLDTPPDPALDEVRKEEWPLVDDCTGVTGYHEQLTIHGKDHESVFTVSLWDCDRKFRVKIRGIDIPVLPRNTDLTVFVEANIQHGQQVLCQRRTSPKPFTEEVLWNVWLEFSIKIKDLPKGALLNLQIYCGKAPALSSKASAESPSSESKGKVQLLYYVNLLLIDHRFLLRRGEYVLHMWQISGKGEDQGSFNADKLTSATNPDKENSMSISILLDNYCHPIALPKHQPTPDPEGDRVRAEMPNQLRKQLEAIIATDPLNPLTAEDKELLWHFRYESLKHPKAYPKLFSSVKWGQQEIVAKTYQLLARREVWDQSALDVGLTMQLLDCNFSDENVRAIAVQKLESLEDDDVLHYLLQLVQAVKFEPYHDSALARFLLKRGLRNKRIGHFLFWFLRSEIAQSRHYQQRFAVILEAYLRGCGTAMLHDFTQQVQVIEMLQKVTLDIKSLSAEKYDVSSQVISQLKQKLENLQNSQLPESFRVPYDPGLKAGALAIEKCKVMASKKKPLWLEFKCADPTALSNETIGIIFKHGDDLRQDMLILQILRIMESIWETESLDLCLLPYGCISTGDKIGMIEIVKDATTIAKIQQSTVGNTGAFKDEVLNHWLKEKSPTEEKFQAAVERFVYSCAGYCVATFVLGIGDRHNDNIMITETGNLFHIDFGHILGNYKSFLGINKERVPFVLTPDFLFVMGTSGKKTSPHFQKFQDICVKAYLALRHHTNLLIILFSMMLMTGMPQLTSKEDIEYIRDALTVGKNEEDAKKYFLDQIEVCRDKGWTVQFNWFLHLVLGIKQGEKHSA

[26] = target: PIM3 (human) (UniProt Q86V86)
[27] = target: PTK2 (human) (UniProt Q05397)
[28] = target: RPS6KA2 KD1 (human) (UniProt Q15349)
[29] = target: STK32A (human) (UniProt Q8WU08)
[30] = target: STK36 (human) (UniProt Q9NRP7)
[31] = target: TAOK3 (human) (UniProt Q9H2K8)
[32] = target: TBK1 (human) (UniProt Q9UHD2)
Chain of TBK1 (human) (Q9UHD2 whole entry, looked up): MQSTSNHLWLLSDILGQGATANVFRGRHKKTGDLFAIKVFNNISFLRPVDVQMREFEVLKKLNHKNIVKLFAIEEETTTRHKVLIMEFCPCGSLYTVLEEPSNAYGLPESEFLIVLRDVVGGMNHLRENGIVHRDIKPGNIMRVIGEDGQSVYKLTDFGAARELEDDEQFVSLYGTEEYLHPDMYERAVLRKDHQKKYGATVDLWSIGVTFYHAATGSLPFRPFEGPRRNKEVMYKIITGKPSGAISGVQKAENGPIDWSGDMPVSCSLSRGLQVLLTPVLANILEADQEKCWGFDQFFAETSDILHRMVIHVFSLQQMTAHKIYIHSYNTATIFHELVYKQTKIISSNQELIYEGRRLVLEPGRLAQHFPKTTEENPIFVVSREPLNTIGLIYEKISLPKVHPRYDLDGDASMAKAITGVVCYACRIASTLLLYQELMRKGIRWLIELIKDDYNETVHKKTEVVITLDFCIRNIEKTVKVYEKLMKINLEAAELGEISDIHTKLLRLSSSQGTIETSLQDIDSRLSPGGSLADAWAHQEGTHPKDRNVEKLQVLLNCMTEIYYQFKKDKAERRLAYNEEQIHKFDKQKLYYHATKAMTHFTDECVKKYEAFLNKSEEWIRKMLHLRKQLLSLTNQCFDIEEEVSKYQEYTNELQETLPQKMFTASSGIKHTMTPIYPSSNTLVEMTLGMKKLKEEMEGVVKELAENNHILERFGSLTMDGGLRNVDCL

[33] = target: TTK (human) (UniProt P33981)
[34] = target: ZAP70 (human) (UniProt P43403)
[35] = target: MAP3K5 (human) (UniProt Q99683)
[36] = target: PDPK1 (human) (UniProt O15530)
[37] = target: PTK6 (human) (UniProt Q13882)
[38] = target: RPS6KA5 KD1 (human) (UniProt O75582)
[39] = target: STK17B (human) (UniProt O94768)

Chain of CDC42BPG (human) (Q6DT37 whole entry, looked up): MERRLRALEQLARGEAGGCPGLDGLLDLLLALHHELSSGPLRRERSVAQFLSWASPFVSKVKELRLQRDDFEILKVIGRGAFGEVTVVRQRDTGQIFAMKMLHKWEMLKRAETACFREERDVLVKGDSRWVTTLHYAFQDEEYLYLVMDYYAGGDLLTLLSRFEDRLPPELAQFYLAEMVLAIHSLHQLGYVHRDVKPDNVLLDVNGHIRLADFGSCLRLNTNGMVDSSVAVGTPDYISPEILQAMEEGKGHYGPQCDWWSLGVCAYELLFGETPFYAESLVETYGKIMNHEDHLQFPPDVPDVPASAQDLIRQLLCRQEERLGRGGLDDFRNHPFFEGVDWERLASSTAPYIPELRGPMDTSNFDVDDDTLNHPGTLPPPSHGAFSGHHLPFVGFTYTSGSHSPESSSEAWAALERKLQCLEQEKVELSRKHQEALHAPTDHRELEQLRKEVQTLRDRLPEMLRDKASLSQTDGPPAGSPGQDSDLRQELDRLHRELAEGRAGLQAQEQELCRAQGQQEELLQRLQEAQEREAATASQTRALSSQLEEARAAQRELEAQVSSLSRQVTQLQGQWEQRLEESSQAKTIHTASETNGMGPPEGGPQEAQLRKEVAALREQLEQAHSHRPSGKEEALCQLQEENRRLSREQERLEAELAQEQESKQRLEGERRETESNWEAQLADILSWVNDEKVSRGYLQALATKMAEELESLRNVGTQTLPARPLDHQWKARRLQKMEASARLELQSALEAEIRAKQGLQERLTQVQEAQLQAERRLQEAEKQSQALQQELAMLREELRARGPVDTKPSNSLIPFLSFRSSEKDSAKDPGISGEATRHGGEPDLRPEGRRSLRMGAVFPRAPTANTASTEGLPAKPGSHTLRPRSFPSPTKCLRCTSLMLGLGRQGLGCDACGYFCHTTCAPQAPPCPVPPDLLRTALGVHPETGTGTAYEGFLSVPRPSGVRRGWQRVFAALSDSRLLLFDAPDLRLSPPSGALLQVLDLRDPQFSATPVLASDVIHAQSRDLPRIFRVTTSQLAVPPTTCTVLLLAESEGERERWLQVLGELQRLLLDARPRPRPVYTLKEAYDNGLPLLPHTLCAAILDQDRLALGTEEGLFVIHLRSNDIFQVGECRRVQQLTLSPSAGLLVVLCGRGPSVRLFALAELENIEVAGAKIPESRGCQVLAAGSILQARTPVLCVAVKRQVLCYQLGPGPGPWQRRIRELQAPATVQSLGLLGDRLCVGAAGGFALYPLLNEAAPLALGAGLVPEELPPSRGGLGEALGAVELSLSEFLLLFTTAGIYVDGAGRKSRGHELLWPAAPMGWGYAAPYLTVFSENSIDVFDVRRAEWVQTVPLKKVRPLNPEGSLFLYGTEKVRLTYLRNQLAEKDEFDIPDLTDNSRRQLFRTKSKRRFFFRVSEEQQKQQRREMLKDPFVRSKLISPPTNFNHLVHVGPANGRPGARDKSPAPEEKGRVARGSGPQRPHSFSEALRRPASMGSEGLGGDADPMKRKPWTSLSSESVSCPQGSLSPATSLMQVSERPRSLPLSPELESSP
Chain of CDK19 (human) (Q9BWU1 whole entry, looked up): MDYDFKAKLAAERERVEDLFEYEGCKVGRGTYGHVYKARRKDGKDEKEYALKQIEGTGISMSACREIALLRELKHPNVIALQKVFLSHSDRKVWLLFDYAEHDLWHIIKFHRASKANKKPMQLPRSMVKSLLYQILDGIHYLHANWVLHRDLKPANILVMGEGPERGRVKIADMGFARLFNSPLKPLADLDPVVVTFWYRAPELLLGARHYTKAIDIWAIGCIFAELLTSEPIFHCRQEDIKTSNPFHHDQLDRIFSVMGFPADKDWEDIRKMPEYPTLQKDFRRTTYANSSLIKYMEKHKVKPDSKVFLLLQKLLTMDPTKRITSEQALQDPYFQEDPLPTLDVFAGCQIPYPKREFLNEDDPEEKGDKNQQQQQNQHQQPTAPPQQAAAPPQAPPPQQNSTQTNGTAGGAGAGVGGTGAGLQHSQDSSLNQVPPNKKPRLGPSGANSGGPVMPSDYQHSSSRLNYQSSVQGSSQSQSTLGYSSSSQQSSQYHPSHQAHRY

Row | Compound | kinase still bound, per cent of control [1] [%] | kinase still bound, per cent of control [2] [%] | kinase still bound, per cent of control [3] [%] | kinase still bound, per cent of control [4] [%] | kinase still bound, per cent of control [5] [%] | kinase still bound, per cent of control [6] [%] | kinase still bound, per cent of control [7] [%] | kinase still bound, per cent of control [8] [%] | kinase still bound, per cent of control [9] [%] | kinase still bound, per cent of control [10] [%] | kinase still bound, per cent of control [12] [%] | kinase still bound, per cent of control [13] [%] | kinase still bound, per cent of control [14] [%] | kinase still bound, per cent of control [15] [%] | kinase still bound, per cent of control [16] [%] | kinase still bound, per cent of control [18] [%] | kinase still bound, per cent of control [19] [%] | kinase still bound, per cent of control [20] [%] | kinase still bound, per cent of control [21] [%] | kinase still bound, per cent of control [22] [%] | other results
1 | CC(=O)c1c(C)c2cnc(Nc3ccc(N4CCNCC4)cn3)nc2n(C2CCCC2)c1=O | 94 | 47 | 39 | 100 | 27 | 78 | 1 | 83 | 1.2 | 22 | 2.9 | 94 | 6 | 39 | 39 | 57 | 26 | 40 | 32 | 29 | kinase still bound, per cent of control [11]: 83%; kinase still bound, per cent of control [17]: 19%; kinase still bound, per cent of control [23]: 69%; kinase still bound, per cent of control [24]: 7.3%; kinase still bound, per cent of control [25]: 6.8%; kinase still bound, per cent of control [26]: 82%; kinase still bound, per cent of control [27]: 61%; kinase still bound, per cent of control [28]: 14%; kinase still bound, per cent of control [29]: 87%; kinase still bound, per cent of control [30]: 78%; kinase still bound, per cent of control [31]: 8.1%; kinase still bound, per cent of control [32]: 47%; kinase still bound, per cent of control [33]: 26%; kinase still bound, per cent of control [34]: 73%
2 | COc1cc2c(Nc3ccc(NC(=O)c4ccccc4)cc3)ncnc2cc1OCCCN1CCOCC1 | 72 | 100 | 68 | 100 | 100 | 100 | 46 | 100 | 100 | 71 | 100 | 98 | 4.9 | 51 | 100 | 100 | 44 | 70 | 100 | 1.1 | kinase still bound, per cent of control [11]: 97%; kinase still bound, per cent of control [17]: 100%; kinase still bound, per cent of control [35]: 100%; kinase still bound, per cent of control [36]: 100%; kinase still bound, per cent of control [23]: 100%; kinase still bound, per cent of control [24]: 81%; kinase still bound, per cent of control [25]: 100%; kinase still bound, per cent of control [26]: 100%; kinase still bound, per cent of control [27]: 62%; kinase still bound, per cent of control [37]: 0.8%; kinase still bound, per cent of control [28]: 84%; kinase still bound, per cent of control [38]: 100%; kinase still bound, per cent of control [39]: 100%; kinase still bound, per cent of control [29]: 96%; kinase still bound, per cent of control [30]: 98%; kinase still bound, per cent of control [31]: 95%; kinase still bound, per cent of control [32]: 66%; kinase still bound, per cent of control [33]: 40%; kinase still bound, per cent of control [34]: 100%
3 | CCN(CCO)CCCOc1ccc2c(Nc3cc(CC(=O)Nc4cccc(F)c4)[nH]n3)ncnc2c1 | 100 | 66 | 88 | 100 | 82 | 99 | 50 | 100 | 69 | 71 | 100 | 92 | 4.5 | 76 | 100 | 100 | 37 | 100 | 87 | 0 | kinase still bound, per cent of control [35]: 100%; kinase still bound, per cent of control [36]: 100%; kinase still bound, per cent of control [23]: 100%; kinase still bound, per cent of control [24]: 81%; kinase still bound, per cent of control [25]: 100%; kinase still bound, per cent of control [26]: 100%; kinase still bound, per cent of control [27]: 64%; kinase still bound, per cent of control [37]: 72%; kinase still bound, per cent of control [28]: 80%; kinase still bound, per cent of control [38]: 100%; kinase still bound, per cent of control [39]: 93%; kinase still bound, per cent of control [29]: 100%; kinase still bound, per cent of control [30]: 37%; kinase still bound, per cent of control [31]: 100%; kinase still bound, per cent of control [32]: 90%; kinase still bound, per cent of control [33]: 49%; kinase still bound, per cent of control [34]: 84%
